Results on eight compounds are retold here after ChEMBL document CHEMBL1151061, “Synthesis and inhibitory effects of bivalent sialyl lewis X analogs at preventing cell adhesion” (Bioorg Med Chem Lett, 1997).

The experiment concerns the target T1, E-selectin (Homo sapiens, UniProt P16581).
T1 sequence (P16581 whole entry): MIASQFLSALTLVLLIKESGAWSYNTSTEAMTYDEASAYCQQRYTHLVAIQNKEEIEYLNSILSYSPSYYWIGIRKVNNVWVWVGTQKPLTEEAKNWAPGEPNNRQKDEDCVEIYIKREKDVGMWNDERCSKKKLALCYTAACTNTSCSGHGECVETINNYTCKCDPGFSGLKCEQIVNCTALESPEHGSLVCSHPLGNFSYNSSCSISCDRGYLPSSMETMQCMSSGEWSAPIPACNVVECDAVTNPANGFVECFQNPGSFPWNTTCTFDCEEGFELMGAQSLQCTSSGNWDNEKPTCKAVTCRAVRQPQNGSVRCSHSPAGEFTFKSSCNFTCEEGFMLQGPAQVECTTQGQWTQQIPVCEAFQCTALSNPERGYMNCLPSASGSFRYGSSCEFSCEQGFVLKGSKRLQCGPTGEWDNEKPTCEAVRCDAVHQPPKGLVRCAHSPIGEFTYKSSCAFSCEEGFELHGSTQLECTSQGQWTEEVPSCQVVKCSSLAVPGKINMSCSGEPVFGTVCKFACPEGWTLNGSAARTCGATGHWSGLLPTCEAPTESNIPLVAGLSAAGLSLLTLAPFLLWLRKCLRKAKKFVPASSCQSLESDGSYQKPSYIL
In words: Compound was evaluated for its inhibitory activity against adhesion of HL-60(human promyelocytic leukemia cells) to recombinant human soluble E-selectin (rhsE).
As for `CO[C@H]1O[C@@H](O[C@H]2[C@H](O[C@@H]3O[C@@H](C)[C@@H](O)[C@@H](O)[C@@H]3O)[C@@H](NC(=O)c3ccc4ccccc4c3)[C@H](OCCCc3cccc(CCCO[C@@H]4O[C@H](CO)[C@@H](O[C@@H]5O[C@H](OC)[C@H](O)[C@H](O[C@]6(C(=O)O)C[C@H](O)[C@@H](NC(C)=O)[C@H]([C@H](O)[C@H](O)CO)O6)[C@H]5O)[C@H](O[C@@H]5O[C@@H](C)[C@@H](O)[C@@H](O)[C@@H]5O)[C@H]4NC(=O)c4ccc5ccccc5c4)c3)O[C@@H]2CO)[C@H](O)[C@@H](O[C@]2(C(=O)O)C[C@H](O)[C@@H](NC(C)=O)[C@H]([C@H](O)[C@H](O)CO)O2)[C@H]1O`, the IC50 (commonly the concentration at which inhibition is half-maximal) was determined as 32 µM.

As for `COC(=O)N[C@@H]1C(O)C(OC2C(O)[C@H](O[C@@H]3C(CO)O[C@@H](OCCCO[C@@H]4CCC[C@H](OCCCO[C@@H]5OC(CO)[C@@H](O[C@@H]6OC(CO)[C@H](O)C(OC7C(O)[C@@H](NC(=O)OC)C([C@H](O)[C@H](O)CO)O[C@H]7C(=O)O)C6O)C(O[C@@H]6OC(C)[C@H](O)C(O)C6O)C5Nc5ccc6ccccc6c5)C4)C(Nc4ccc5ccccc5c4)C3O[C@@H]3OC(C)[C@H](O)C(O)C3O)OC(CO)[C@@H]2O)[C@H](C(=O)O)OC1[C@H](O)[C@H](O)CO` (stereo partly drawn), the IC50 turned out to be 41 µM. To `COC(=O)N[C@@H]1C(O)C(OC2C(O)[C@H](O[C@@H]3C(CO)O[C@@H](OCCCO[C@H]4CCC[C@H](OCCCO[C@@H]5OC(CO)[C@@H](O[C@@H]6OC(CO)[C@H](O)C(OC7C(O)[C@@H](NC(=O)OC)C([C@H](O)[C@H](O)CO)O[C@H]7C(=O)O)C6O)C(O[C@@H]6OC(C)[C@H](O)C(O)C6O)C5Nc5ccc6ccccc6c5)C4)C(Nc4ccc5ccccc5c4)C3O[C@@H]3OC(C)[C@H](O)C(O)C3O)OC(CO)[C@@H]2O)[C@H](C(=O)O)OC1[C@H](O)[C@H](O)CO` (stereo partly drawn) belongs 49 µM; to `CC(=O)N[C@@H]1[C@@H]([C@H](O)[C@H](O)CO)O[C@](O[C@H]2[C@@H](O)[C@@H](O[C@@H]3[C@@H](O[C@H]4O[C@H](C)[C@H](O)[C@@H](O)[C@H]4O)[C@@H](NC(=O)c4ccc5ccccc5c4)[C@@H](OCCc4cccc(CCO[C@@H]5O[C@@H](CO)[C@@H](O[C@@H]6O[C@@H](CO)[C@H](O)[C@H](O[C@]7(C(=O)O)C[C@@H](O)[C@@H](NC(C)=O)[C@H]([C@H](O)[C@H](O)CO)O7)[C@@H]6O)[C@H](O[C@@H]6O[C@@H](C)[C@@H](O)[C@H](O)[C@@H]6O)[C@@H]5NC(=O)c5ccc6ccccc6c5)c4)O[C@@H]3CO)O[C@H](CO)[C@H]2O)(C(=O)O)C[C@@H]1O`, 60 µM; to `CC(=O)N[C@@H]1[C@@H]([C@H](O)[C@H](O)CO)O[C@](O[C@H]2[C@@H](O)[C@@H](O[C@@H]3[C@@H](O[C@H]4O[C@H](C)[C@H](O)[C@@H](O)[C@H]4O)[C@@H](NC(=O)c4ccc5ccccc5c4)[C@@H](OCCCOc4cccc(OCCCO[C@@H]5O[C@@H](CO)[C@@H](O[C@@H]6O[C@@H](CO)[C@H](O)[C@H](O[C@]7(C(=O)O)C[C@@H](O)[C@@H](NC(C)=O)[C@H]([C@H](O)[C@H](O)CO)O7)[C@@H]6O)[C@H](O[C@@H]6O[C@@H](C)[C@@H](O)[C@H](O)[C@@H]6O)[C@@H]5NC(=O)c5ccc6ccccc6c5)c4)O[C@@H]3CO)O[C@H](CO)[C@H]2O)(C(=O)O)C[C@@H]1O`, 37 µM.

Turning to `CCO[C@@H]1O[C@@H](CO)[C@@H](O[C@@H]2O[C@@H](CO)[C@H](O)[C@H](O[C@]3(C(=O)O)C[C@@H](O)[C@@H](NC(C)=O)[C@H]([C@H](O)[C@H](O)CO)O3)[C@@H]2O)[C@H](O[C@@H]2O[C@@H](C)[C@@H](O)[C@H](O)[C@@H]2O)[C@@H]1NC(C)=O`, the 50% inhibitory concentration (IC50) was found to be 1500 µM. To `CC(=O)N[C@@H]1[C@@H]([C@H](O)[C@H](O)CO)O[C@](O[C@H]2[C@@H](O)[C@@H](O[C@@H]3[C@@H](O[C@H]4O[C@H](C)[C@H](O)[C@@H](O)[C@H]4O)[C@@H](NC(=O)c4ccc5ccccc5c4)[C@@H](OCc4cccc(CO[C@@H]5O[C@@H](CO)[C@@H](O[C@@H]6O[C@@H](CO)[C@H](O)[C@H](O[C@]7(C(=O)O)C[C@@H](O)[C@@H](NC(C)=O)[C@H]([C@H](O)[C@H](O)CO)O7)[C@@H]6O)[C@H](O[C@@H]6O[C@@H](C)[C@@H](O)[C@H](O)[C@@H]6O)[C@@H]5NC(=O)c5ccc6ccccc6c5)c4)O[C@@H]3CO)O[C@H](CO)[C@H]2O)(C(=O)O)C[C@@H]1O` belongs 30 µM.

Consider `CC(=O)N[C@H]1[C@H]([C@H](O)[C@H](O)CO)O[C@@](O[C@@H]2[C@H](O)[C@H](O[C@H]3[C@H](O[C@@H]4O[C@@H](C)[C@@H](O)[C@H](O)[C@@H]4O)[C@H](NC(=O)c4ccc5ccccc5c4)[C@H](OCCCc4cccc(CCCO)c4)O[C@H]3CO)O[C@@H](CO)[C@@H]2O)(C(=O)O)C[C@H]1O`, for which the IC50 worked out at 200 µM.
